Data published in BindingDB's records for doi:10.1021/jm991038t (Max-Planck Research Unit, 1999).

Experiment: Inhibition constant(Ki) for inhibition of PPIase activity of Legionella pneumophilia FK506 binding protein 25 (Conc=40 nM) of FKBPs family

## C[C@@H]1C[C@@H]([C@H](O)CC2CC(=O)NC(=O)C2)C(=O)[C@@H](C)C1 [Cycloheximid]
  Ki: 124 µM
